Assay results: patent publication US20110306597A1, “Nicotinamide Derivatives” (priority 2008, published 2011)

Target: human recombinant H-PGDS (Homo sapiens, UniProt O60760)
Test: Fluorescence Intensity h-PGDS TBA Enzyme Assay
Format: biochemical
Conditions: 1:175,000 human recombinant H-PGDS, highest inhibitor concentration typically 1 μM
Method in brief: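 Recombinant human H-PGDS preincubated 10 min at room temperature with inhibitor in 100 mM Tris pH 8.0, 100 μM MgCl2, 2.5 mM glutathione, 0.5% DMSO; 5.0 μM PGH2 added, stopped after 42 s with FeCl2/citric acid. Remaining PGH2 measured as MDA–TBA fluorescence (ex 530/em 565 nm); IC50 by 4-parameter fit, 11 concentrations.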

human recombinant H-PGDS, sequence (O60760 whole entry): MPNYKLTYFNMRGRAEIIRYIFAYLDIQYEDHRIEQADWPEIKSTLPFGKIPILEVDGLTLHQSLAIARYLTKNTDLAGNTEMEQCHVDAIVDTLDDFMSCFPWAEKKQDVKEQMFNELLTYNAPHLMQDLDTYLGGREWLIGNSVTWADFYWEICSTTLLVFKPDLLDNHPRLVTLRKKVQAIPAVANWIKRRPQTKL

| SMILES | IC50 |
| --- | --- |
| COC(=O)[C@H](C)NC(=O)c1ccc(-c2cccc(F)c2)nc1 [Example 174, Methyl N-{[6-(3-fluorophenyl)pyridin-3-yl]carbonyl}alaninate] | 601 nM |
| CN1CCC(CCNC(=O)c2ccc(-c3cccc(F)c3)nc2)CC1 [Example 175, 6-(3-Fluorophenyl)-N-[2-(1-methylpiperidin-4-yl)ethyl]nicotinamide] | 47.1 nM |
| O=C(NCCN1CCN(Cc2ccccc2)CC1)c1ccc(-c2cccc(F)c2)nc1 [Example 176, N-[2-(4-Benzylpiperazin-1-yl)ethyl]-6-(3-fluorophenyl)nicotinamide] | 33.4 nM |
| O=C(Nc1ccncc1)c1ccc(-c2cccc(F)c2)nc1 [Example 177, 6-(3-Fluorophenyl)-N-pyridin-4-ylnicotinamide] | 8.19 nM |
| CC(=O)N1CCC(CNC(=O)c2ccc(-c3cccc(F)c3)nc2)CC1 [Example 178, N-[(1-Acetylpiperidin-4-yl)methyl]-6-(3-fluorophenyl)nicotinamide] | 6.88 nM |
| CC(C)NC(=O)c1ccc(-c2cccc(F)c2)nc1 [Example 179, 6-(3-Fluorophenyl)-N-isopropylnicotinamide] | 20.5 nM |
| O=C(NCc1ccc(-n2cncn2)cc1)c1ccc(-c2cccc(F)c2)nc1 [Example 180, 6-(3-Fluorophenyl)-N-[4-(1H-1,2,4-triazol-1-yl)benzyl]nicotinamide] | 23.1 nM |
| Cc1noc(CCNC(=O)c2ccc(-c3cccc(F)c3)nc2)n1 [Example 181, 6-(3-Fluorophenyl)-N-[2-(3-methyl-1,2,4-oxadiazol-5-yl)ethyl]nicotinamide] | 44.6 nM |
| O=C(NCc1cn2ncsc2n1)c1ccc(-c2cccc(F)c2)nc1 [Example 182, 6-(3-Fluorophenyl)-N-(imidazo[2,1-b][1,3,4]thiadiazol-6-ylmethyl)nicotinamide] | 79.2 nM |
| O=C(NCCN1CCCC1=O)c1ccc(-c2cccc(F)c2)nc1 [Example 183, 6-(3-Fluorophenyl)-N-[2-(2-oxopyrrolidin-1-yl)ethyl]nicotinamide] | 17.4 nM |
| O=C(NCc1cc(F)cc2c1OCOC2)c1ccc(-c2cccc(F)c2)nc1 [Example 184, N-[(6-Fluoro-4H-1,3-benzodioxin-8-yl)methyl]-6-(3-fluorophenyl)nicotinamide] | 49.5 nM |
| O=C(NCCc1ccncc1)c1ccc(-c2cccc(F)c2)nc1 [Example 185, 6-(3-Fluorophenyl)-N-(2-pyridin-4-ylethyl)nicotinamide] | 8.99 nM |
| O=C(NCCN1CCOC1=O)c1ccc(-c2cccc(F)c2)nc1 [Example 186, 6-(3-Fluorophenyl)-N-[2-(2-oxo-1,3-oxazolidin-3-yl)ethyl]nicotinamide] | 34.6 nM |
| COC(=O)CCNC(=O)c1ccc(-c2cccc(F)c2)nc1 [Example 187, Methyl N-{[6-(3-fluorophenyl)pyridin-3-yl]carbonyl}-beta-alaninate] | 14.5 nM |
| CCC1CCN(CCNC(=O)c2ccc(-c3cccc(F)c3)nc2)CC1 [Example 188, N-[2-(4-Ethylpiperidin-1-yl)ethyl]-6-(3-fluorophenyl)nicotinamide] | 16.3 nM |
| CS(=O)(=O)c1cccc(CNC(=O)c2ccc(-c3cccc(F)c3)nc2)c1 [Example 189, 6-(3-Fluorophenyl)-N-[3-(methylsulfonyl)benzyl] nicotinamide] | 6.74 nM |
| COc1ccc(C(CNC(=O)c2ccc(-c3cccc(F)c3)nc2)N2CCOCC2)cc1 (centres unmarked) [Example 190, 6-(3-Fluorophenyl)-N-[2-(4-methoxyphenyl)-2-morpholin-4-ylethyl]nicotinamide] | 1330 nM |
| O=C(NC1CCOCC1)c1ccc(-c2cccc(F)c2)nc1 [Example 191, 6-(3-Ffluorophenyl)-N-(tetrahydro-2H-pyran-4-yl)nicotinamide] | 2.33 nM |
| CCOC(=O)CCCNC(=O)c1ccc(-c2cccc(F)c2)nc1 [Example 192, Ethyl 4-({[6-(3-fluorophenyl)pyridin-3-yl]carbonyl}amino)butanoate] | 9.04 nM |
| Cc1ccc(CN2CCC(NC(=O)c3ccc(-c4cccc(F)c4)nc3)C2=O)cc1 (centres unmarked) [Example 193, 6-(3-Fluorophenyl)-N-[1-(4-methylbenzyl)-2-oxopyrrolidin-3-yl]nicotinamide] | 2.23 nM |
| COC(C)(C)CNC(=O)c1ccc(-c2cccc(F)c2)nc1 [Example 194, 6-(3-Fluorophenyl)-N-(2-methoxy-2-methylpropyl)nicotinamide] | 376 nM |
| O=C(NCCN1CCCCC1)c1ccc(-c2cccc(F)c2)nc1 [Example 195, 6-(3-Fluorophenyl)-N-(2-piperidin-1-ylethyl)nicotinamide] | 12.1 nM |

| SMILES | IC50 |
| --- | --- |
| COc1ccc(C(N)CC(=O)NC(=O)c2ccc(-c3cccc(F)c3)nc2)cc1OC (centres unmarked) [Example 196, N-[3-Amino-3-(3,4-dimethoxyphenyl)propanoyl]-6-(3-fluorophenyl)nicotinamide] | 12.4 nM |
| O=C(NCCCNc1ccccn1)c1ccc(-c2cccc(F)c2)nc1 [Example 197, 6-(3-Fluorophenyl)-N-[3-(pyridin-2-ylamino)propyl]nicotinamide] | 34 nM |
| CC(O)CNC(=O)c1ccc(-c2cccc(F)c2)nc1 (centres unmarked) [Example 198, 6-(3-Fluorophenyl)-N-(2-hydroxypropyl)nicotinamide] | 38.7 nM |
| O=C(NCc1noc(C(=O)N2CC[C@H](O)C2)n1)c1ccc(-c2cccc(F)c2)nc1 [Example 199, 6-(3-Fluorophenyl)-N-[(5-{[(3S)-3-hydroxypyrrolidin-1-yl]carbonyl}-1,2,4-oxadiazol-3-yl)methyl]nicotinamide] | 622 nM |
| O=C(NCCc1nnc(-c2ccc(F)cc2)o1)c1ccc(-c2cccc(F)c2)nc1 [Example 200, 6-(3-Fluorophenyl)-N-{2-[5-(4-fluorophenyl)-1,3,4-oxadiazol-2-yl]ethyl}nicotinamide] | 447 nM |
| CCOC(=O)Cc1noc(CNC(=O)c2ccc(-c3cccc(F)c3)nc2)n1 [Example 201, Ethyl {5-[({[6-(3-fluorophenyl)pyridin-3-yl]carbonyl}amino)methyl]-1,2,4-oxadiazol-3-yl}acetate] | 59.2 nM |
| COc1ccc(C(NC(=O)c2ccc(-c3cccc(F)c3)nc2)C2CC2)cc1 (centres unmarked) [Example 202, N-[Cyclopropyl(4-methoxyphenyl)methyl]-6-(3-fluorophenyl)nicotinamide] | 99.9 nM |
| Cc1cc(CNC(=O)c2ccc(-c3cccc(F)c3)nc2)c(C(F)(F)F)o1 [Example 203, 6-(3-Fluorophenyl)-N-{[5-methyl-2-(trifluoromethyl)-3-furyl]methyl}nicotinamide] | 150 nM |
| COc1ccc(C(CNC(=O)c2ccc(-c3cccc(F)c3)nc2)N(C)C)cc1 (centres unmarked) [Example 204, N-[2-(Dimethylamino)-2-(4-methoxyphenyl)ethyl]-6-(3-fluorophenyl)nicotinamide] | 125 nM |
| CCOC(=O)Cc1ccc(CNC(=O)c2ccc(-c3cccc(F)c3)nc2)cc1 [Example 205, Ethyl {4-[({[6-(3-fluorophenyl)pyridin-3-yl]carbonyl}amino)methyl]phenyl}acetate] | 29.9 nM |
| CC(C)Cc1nnc(CCNC(=O)c2ccc(-c3cccc(F)c3)nc2)o1 [Example 206, 6-(3-Fluorophenyl)-N-[2-(5-isobutyl-1,3,4-oxadiazol-2-yl)ethyl]nicotinamide] | 16.6 nM |
| O=C(NCCc1nnc(C2CC2)o1)c1ccc(-c2cccc(F)c2)nc1 [Example 207, N-[2-(5-Cyclopropyl-1,3,4-oxadiazol-2-yl)ethyl]-6-(3-fluorophenyl)nicotinamide] | 27.1 nM |
| COc1ccc2nc(CCNC(=O)c3ccc(-c4cccc(F)c4)nc3)[nH]c2c1 [Example 208, 6-(3-Fluorophenyl)-N-[2-(6-methoxy-1H-benzimidazol-2-yl)ethyl]nicotinamide] | 18.3 nM |
| CCOC(=O)CCNC(=O)c1ccc(-c2cccc(F)c2)nc1 [Example 209, Ethyl N-{[6-(3-fluorophenyl)pyridin-3-yl]carbonyl}-beta-alaninate] | 13.1 nM |
| O=C(NC(CN1CCOCC1)c1ccccc1)c1ccc(-c2cccc(F)c2)nc1 (centres unmarked) [Example 210, 6-(3-Fluorophenyl)-N-(2-morpholin-4-yl-1-phenylethyl)nicotinamide] | 39.2 nM |
| O=C(NCc1noc(C(=O)N2CC[C@@H](O)C2)n1)c1ccc(-c2cccc(F)c2)nc1 [Example 211, 6-(3-Fluorophenyl)-N-[(5-{[(3R)-3-hydroxypyrrolidin-1-yl]carbonyl}-1,2,4-oxadiazol-3-yl)methyl]nicotinamide] | 362 nM |
| N#CC(NC(=O)c1ccc(-c2cccc(F)c2)nc1)C(=O)NCCN1CCOCC1 (centres unmarked) [Example 212, N-{1-Cyano-2-[(2-morpholin-4-ylethyl)amino]-2-oxoethyl}-6-(3-fluorophenyl)nicotinamide] | 297 nM |
| Cc1cc(C)cc(-c2nnc(CCNC(=O)c3ccc(-c4cccc(F)c4)nc3)o2)c1 [Example 213, N-{2-[5-(3,5-Dimethylphenyl)-1,3,4-oxadiazol-2-yl]ethyl}-6-(3-fluorophenyl)nicotinamide] | 28.3 nM |
| O=C(NCCCCNC(=O)c1ccc(-c2cccc(F)c2)nc1)OCc1ccccc1 [Example 214, Benzyl [4-({[6-(3-fluorophenyl)pyridin-3-yl]carbonyl}amino)butyl] carbamate] | 20.7 nM |
| O=C(NCCN1CCCCC1CO)c1ccc(-c2cccc(F)c2)nc1 (centres unmarked) [Example 215, 6-(3-Fluorophenyl)-N-{2-[2-(hydroxymethyl)piperidin-1-yl]ethyl}nicotinamide] | 101 nM |
| CC(C)OCCCN1CC(CNC(=O)c2ccc(-c3cccc(F)c3)nc2)OCC1=O (centres unmarked) [Example 216, 6-(3-Fluorophenyl)-N-{[4-(3-isopropoxypropyl)-5-oxomorpholin-2-yl]methyl}nicotinamide] | 128 nM |
| CCOC(=O)c1nnc(CNC(=O)c2ccc(-c3cccc(F)c3)nc2)o1 [Example 217, Ethyl 5-[({[6-(3-fluorophenyl)pyridin-3-yl]carbonyl}amino)methyl]-1,3,4-oxadiazole-2-carboxylate] | 39.9 nM |
